From the SangsterLogP compilation

Test: method code SF-AS, from PMID: 594121
Conditions: for logD: pH 7.4

| SMILES | logP | logD |
| --- | --- | --- |
| O=C(CN1CCCCC1)Nc1ccc(C(F)(F)F)cc1 | 3.06 | – |
| CCOc1ccc(NC(=O)CN2CCCCC2)cc1 | – | 2.82 |
| O=C(CN1CCCCC1)Nc1ccccc1C(F)(F)F | 3.09 | – |
| O=C(CN1CCCCC1)Nc1ccccc1[N+](=O)[O-] | 2.75 | – |
| O=C(CN1CCCCC1)Nc1ccccc1Br | 2.94 | – |
| O=C(CN1CCCCC1)Nc1ccccc1 | – | 2.41 |
| COc1ccccc1NC(=O)CN1CCCCC1 | 2.85 | – |
| O=C(CN1CCCCC1)Nc1ccc(F)cc1 | 2.7 | – |
| Cc1ccccc1NC(=O)CN1CCCCC1 | 2.26 | – |
| Cc1ccc(NC(=O)CN2CCCCC2)cc1 | 2.95 | – |
| O=C(CN1CCCCC1)Nc1ccccc1Cl | 2.76 | – |
| O=C(CN1CCCCC1)Nc1ccc(I)cc1 | – | 3.21 |
| O=C(CN1CCCCC1)Nc1ccccc1F | 2.16 | – |
| CCOc1ccccc1NC(=O)CN1CCCCC1 | 3.04 | – |
| O=C(CN1CCCCC1)Nc1ccc([N+](=O)[O-])cc1 | – | 2.25 |

Next, values leading:

| logP | logD | SMILES |
| --- | --- | --- |
| 2.97 | – | Cc1cccc(NC(=O)CN2CCCCC2)c1 |
| 2.59 | – | O=C(CN1CCCCC1)Nc1cccc([N+](=O)[O-])c1 |
| 2.85 | – | O=C(CN1CCCCC1)Nc1cccc(F)c1 |
| 3.45 | – | O=C(CN1CCCCC1)Nc1cccc(Cl)c1 |
| 2.71 | – | COc1cccc(NC(=O)CN2CCCCC2)c1 |
| – | 3.23 | O=C(CN1CCCCC1)Nc1cccc(I)c1 |
| 3.12 | – | O=C(CN1CCCCC1)Nc1cccc(C(F)(F)F)c1 |
| – | 2.88 | O=C(CN1CCCCC1)Nc1ccc(Br)cc1 |
| 3.17 | – | CCOc1cccc(NC(=O)CN2CCCCC2)c1 |
| – | 2.93 | O=C(CN1CCCCC1)Nc1cccc(Br)c1 |
